Test results as given in patent publication US20250388593A1 (MITSUBISHI TANABE PHARMA CORPORATION, priority 2023, published 2025).

Biological target: CRBN truncate (318-426) (Homo sapiens (Human), UniProt Q96SW2)
Test: Measurement of molecular interactions using surface plasmon resonance (SPR), Biacore T200
Assay type: binding
Conditions: 25° C., immobilized CRBN truncate, upper limit of measurement 200 μM
Procedure, shortened: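 Compound injections used 60 s association and 120 s dissociation in HEPES pH 7.5 buffer (150 mM NaCl, 1 mM TCEP, 0.005% Tween 20, 2% DMSO). The ligand was CRBN truncate 318-426 bearing a C-terminal Avi-tag, immobilised via streptavidin on an SA sensor chip.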

CRBN truncate (318-426), sequence (Q96SW2 318-426): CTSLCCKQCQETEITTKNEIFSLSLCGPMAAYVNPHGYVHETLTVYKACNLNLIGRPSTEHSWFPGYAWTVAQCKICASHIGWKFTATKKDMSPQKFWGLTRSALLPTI

Compound	Kd [µM]
Cc1ccc(NC(=O)Nc2ccc3nc(N4CCC5(CCCC(=O)NC5=O)C4)sc3c2)cc1Cl (stereo not drawn) [Example 296, 1-(3-Chloro-4-methylphenyl)-3-[2-(6,8-dioxo-2,7-diazaspiro [4.6]undecan-2-yl)-1,3-benzothiazol-6-yl]urea]	≥ 100
Nc1ccc(N2CCC(N3CCCC(=O)NC3=O)C2=O)cc1 (stereo not drawn) [Example 297, 1-[1-(4-Aminophenyl)-2-oxopyrrolidin-3-yl]-1,3-diazepane-2,4-dione]	≥ 100
CC(C)(C)OC(=O)CCCCCNc1ccc(C(=O)N2CCC3(CCCC(=O)NC3=O)C2)cc1 (stereo not drawn) [Example 300, tert-Butyl 6-[4-(6,8-dioxo-2,7-diazaspiro[4.6]undecane-2-carbonyl)anilino]hexanoate]	< 50
CC(C)(C)OC(=O)NCCCCCCCNc1ccc2nc(N3CCCC(=O)NC3=O)sc2c1 [Example 303, tert-Butyl N-[7-[[2-(2,4-dioxo-1,3-diazepan-1-yl)-1,3-benzothiazol-6-yl]amino]heptyl]carbamate]	≥ 100
CC(C)(C)[Si](C)(C)OC1c2cccc(Br)c2CC1N1CC=CC(=O)NC1=O (stereo not drawn) [Example 307]	≥ 100
Cc1sc2c(c1C)C(c1ccc(Cl)cc1)=N[C@@H](CC(=O)NCCCCCCc1cccc(C(=O)N3CCC4(CCCC(=O)NC4=O)C3)c1)c1nnc(C)n1-2 (stereo partly drawn) [Example 308, 2-[(9S)-7-(4-chlorophenyl)-4,5,13-trimethyl-3-thia-1,8,11,12-tetraazatricyclo[8.3.0.02,6]trideca-2(6),4,7,10,12-pentaen-9-yl]-N-[6-[3-(6,8-dioxo-2,7-diazaspiro[4.6]undecane-2-carbonyl)phenyl]hexyl]acetamide]	≥ 100
Cc1sc2c(c1C)C(c1ccc(Cl)cc1)=N[C@@H](CC(=O)NCCCCCCCCN1CC3(CC(=O)N(C4CCC(=O)NC4=O)C3=O)C1)c1nnc(C)n1-2 (stereo partly drawn) [Example 309, 2-[(9S)-7-(4-chlorophenyl)-4,5,13-trimethyl-3-thia-1,8,11,12-tetraazatricyclo[8.3.0.02,6]trideca-2(6),4,7,10,12-pentaen-9-yl]-N-[8-[6-(2,6-dioxopiperidin-3-yl)-5,7-dioxo-2,6-diazaspiro[3.4]octan-2-yl]octyl]acetamide]	≥ 100
Cc1sc2c(c1C)C(c1ccc(Cl)cc1)=N[C@@H](CC(=O)NCCCCCCCc1cn(C3CCCC(=O)NC3=O)nn1)c1nnc(C)n1-2 (stereo partly drawn) [Example 310, 2-[(9S)-7-(4-chlorophenyl)-4,5,13-trimethyl-3-thia-1,8,11,12-tetraazatricyclo[8.3.0.02,6]trideca-2(6),4,7,10,12-pentaen-9-yl]-N-[7-[1-(2,7-dioxoazepan-3-yl)triazol-4-yl]heptyl]acetamide]	≥ 100
Cc1sc2c(c1C)C(c1ccc(Cl)cc1)=N[C@@H](CC(=O)NCCCCCCc1ccc(S(=O)(=O)N(C)C3CCCC(=O)NC3=O)cc1)c1nnc(C)n1-2 (stereo partly drawn) [Example 311, 2-[(9S)-7-(4-chlorophenyl)-4,5,13-trimethyl-3-thia-1,8,11,12-tetraazatricyclo[8.3.0.02,6]trideca-2(6),4,7,10,12-pentaen-9-yl]-N-[6-[4-[(2,7-dioxoazepan-3-yl)-methylsulfamoyl]phenyl]hexyl]acetamide]	< 50
Cc1sc2c(c1C)C(c1ccc(Cl)cc1)=N[C@@H](CC(=O)NCCCCCCCNc1ccc3nc(N4CCCC(=O)NC4=O)sc3c1)c1nnc(C)n1-2 [Example 312, 2-[(9S)-7-(4-chlorophenyl)-4,5,13-trimethyl-3-thia-1,8,11,12-tetraazatricyclo[8.3.0.02,6]trideca-2(6),4,7,10,12-pentaen-9-yl]-N-[7-[[2-(2,4-dioxo-1,3-diazepan-1-yl)-1,3-benzothiazol-6-yl]amino]heptyl]acetamide]	< 50
Cc1sc2c(c1C)C(c1ccc(Cl)cc1)=N[C@@H](CC(=O)NCCCCCCCNc1ccc(N3CCC(N4CCCC(=O)NC4=O)C3=O)cc1)c1nnc(C)n1-2 (stereo partly drawn) [Example 313, 2-[(9S)-7-(4-chlorophenyl)-4,5,13-trimethyl-3-thia-1,8,11,12-tetraazatricyclo[8.3.0.02,6]trideca-2(6),4,7,10,12-pentaen-9-yl]-N-[7-[4-[3-(2,4-dioxo-1,3-diazepan-1-yl)-2-oxopyrrolidin-1-yl]anilino]heptyl]acetamide]	< 50
Cc1sc2c(c1C)C(c1ccc(Cl)cc1)=N[C@@H](CC(=O)NCCCCCCCNc1ccc(N3CCC4(CCCC(=O)NC4=O)CC3=O)cc1)c1nnc(C)n1-2 (stereo partly drawn) [Example 314, 2-[(9S)-7-(4-chlorophenyl)-4,5,13-trimethyl-3-thia-1,8,11,12-tetraazatricyclo[8.3.0.02,6]trideca-2(6),4,7,10,12-pentaen-9-yl]-N-[7-[4-(4,7,9-trioxo-3,8-diazaspiro[5.6]dodecan-3-yl)anilino]heptyl]acetamide]	< 50
Cc1sc2c(c1C)C(c1ccc(Cl)cc1)=N[C@@H](CC(=O)NCCCNc1nccc(N3CC4(CC(=O)N(C5CCC(=O)NC5=O)C4=O)C3)n1)c1nnc(C)n1-2 (stereo partly drawn) [Example 315, 2-[(9S)-7-(4-chlorophenyl)-4,5,13-trimethyl-3-thia-1,8,11,12-tetraazatricyclo[8.3.0.02,6]trideca-2(6),4,7,10,12-pentaen-9-yl]-N-[3-[[4-[6-(2,6-dioxopiperidin-3-yl)-5,7-dioxo-2,6-diazaspiro[3.4]octan-2-yl]pyrimidin-2-yl]amino]propyl]acetamide]	< 50
Cc1sc2c(c1C)C(c1ccc(Cl)cc1)=N[C@@H](CC(=O)NCCCCCCc1ccc(-c3cn(C4CCCC(=O)NC4=O)nn3)cc1)c1nnc(C)n1-2 (stereo partly drawn) [Example 316, 2-[(9S)-7-(4-chlorophenyl)-4,5,13-trimethyl-3-thia-1,8,11,12-tetraazatricyclo[8.3.0.02,6]trideca-2(6),4,7,10,12-pentaen-9-yl]-N-[6-[4-[1-(2,7-dioxoazepan-3-yl)triazol-4-yl]phenyl]hexyl]acetamide]	< 50
Cc1sc2c(c1C)C(c1ccc(Cl)cc1)=N[C@@H](CC(=O)NCCc1ccc(S(=O)(=O)N3CC4(CC(=O)N(C5CCC(=O)NC5=O)C4=O)C3)cc1)c1nnc(C)n1-2 (stereo partly drawn) [Example 317, 2-[(9S)-7-(4-chlorophenyl)-4,5,13-trimethyl-3-thia-1,8,11,12-tetraazatricyclo[8.3.0.02,6]trideca-2(6),4,7,10,12-pentaen-9-yl]-N-[2-[4-[[6-(2,6-dioxopiperidin-3-yl)-5,7-dioxo-2,6-diazaspiro[3.4]octan-2-yl]sulfonyl]phenyl]ethyl]acetamide]	< 50
Cc1sc2c(c1C)C(c1ccc(Cl)cc1)=N[C@@H](CC(=O)NCCCCCCCCn1ccc3c(N4CC5(CC(=O)N(C6CCC(=O)NC6=O)C5=O)C4)ncnc31)c1nnc(C)n1-2 (stereo partly drawn) [Example 318, 2-[(9S)-7-(4-chlorophenyl)-4,5,13-trimethyl-3-thia-1,8,11,12-tetraazatricyclo[8.3.0.02,6]trideca-2(6),4,7,10,12-pentaen-9-yl]-N-[8-[4-[6-(2,6-dioxopiperidin-3-yl)-5,7-dioxo-2,6-diazaspiro[3.4]octan-2-yl]pyrrolo[2,3-d]pyrimidin-7-yl]octyl]acetamide]	< 50
Cc1sc2c(c1C)C(c1ccc(Cl)cc1)=N[C@@H](CC(=O)NCCCCCCCCn1ccc3c(N4CCC5(CCCC(=O)NC5=O)C4)ncnc31)c1nnc(C)n1-2 (stereo partly drawn) [Example 319, 2-[(9S)-7-(4-chlorophenyl)-4,5,13-trimethyl-3-thia-1,8,11,12-tetraazatricyclo[8.3.0.02,6]trideca-2(6),4,7,10,12-pentaen-9-yl]-N-[8-[4-(6,8-dioxo-2,7-diazaspiro[4.6]undecan-2-yl)pyrrolo[2,3-d]pyrimidin-7-yl]octyl]acetamide]	< 50
Cc1sc2c(c1C)C(c1ccc(Cl)cc1)=N[C@@H](CC(=O)NCCCCCCCCOc1ccc(C#N)c(N3CCC4(CCCC(=O)NC4=O)C3)c1)c1nnc(C)n1-2 (stereo partly drawn) [Example 320, 2-[(9S)-7-(4-chlorophenyl)-4,5,13-trimethyl-3-thia-1,8,11,12-tetraazatricyclo[8.3.0.02,6]trideca-2(6),4,7,10,12-pentaen-9-yl]-N-[8-[4-cyano-3-(6,8-dioxo-2,7-diazaspiro[4.6]undecan-2-yl)phenoxy]octyl]acetamide]	< 50
Cc1sc2c(c1C)C(c1ccc(Cl)cc1)=N[C@@H](CC(=O)NCCCCCOc1ccc3nc(N4CC5(CC(=O)N(C6CCC(=O)NC6=O)C5=O)C4)sc3c1)c1nnc(C)n1-2 (stereo partly drawn) [Example 321, 2-[(9S)-7-(4-chlorophenyl)-4,5,13-trimethyl-3-thia-1,8,11,12-tetraazatricyclo[8.3.0.02,6]trideca-2(6),4,7,10,12-pentaen-9-yl]-N-[5-[[2-[6-(2,6-dioxopiperidin-3-yl)-5,7-dioxo-2,6-diazaspiro[3.4]octan-2-yl]-1,3-benzothiazol-6-yl]oxy]pentyl]acetamide]	< 50
Cc1sc2c(c1C)C(c1ccc(Cl)cc1)=N[C@@H](CC(=O)NCCCCCOc1ccc3nc(N4CCC5(CCCC(=O)NC5=O)C4)sc3c1)c1nnc(C)n1-2 (stereo partly drawn) [Example 322, 2-[(9S)-7-(4-chlorophenyl)-4,5,13-trimethyl-3-thia-1,8,11,12-tetraazatricyclo[8.3.0.02,6]trideca-2(6),4,7,10,12-pentaen-9-yl]-N-[5-[[2-(6,8-dioxo-2,7-diazaspiro[4.6]undecan-2-yl)-1,3-benzothiazol-6-yl]oxy]pentyl]acetamide]	< 50
Cc1sc2c(c1C)C(c1ccc(Cl)cc1)=N[C@@H](CC(=O)NCCCCCCc1ccc(C(=O)N3CCC4(CCCC(=O)NC4=O)C3)cc1Cl)c1nnc(C)n1-2 (stereo partly drawn) [Example 323, N-[6-[2-chloro-4-(6,8-dioxo-2,7-diazaspiro[4.6]undecane-2-carbonyl)phenyl]hexyl]-2-[(9S)-7-(4-chlorophenyl)-4,5,13-trimethyl-3-thia-1,8,11,12-tetraazatricyclo[8.3.0.02,6]trideca-2(6),4,7,10,12-pentaen-9-yl]acetamide]	< 50
